Results reported in ChEMBL document CHEMBL3588817, “Discovery of 4,5,6,7-Tetrahydrobenzo[1,2-d]thiazoles as Novel DNA Gyrase Inhibitors Targeting the ATP-Binding Site” (J Med Chem, 2015).
≈ marks a conversion by molar mass, not a printed value.

Columns and labels:
[1] = system: Escherichia coli; experiment: Inhibition of Escherichia coli DNA topoisomerase 4 assessed as residual enzyme activity at 100 uM using relaxed pNO1 plasmid and biotinylated oligonucelotide incubated for 30 mins by fluorescence based DNA relaxation assay
[2] = system: Staphylococcus aureus; experiment: Antibacterial activity against Staphylococcus aureus 25923 assessed as inhibition of microbial growth at 50 uM by broth microdilution method; assay type: functional; conditions: read-out: GI
[3] = system: Escherichia coli; experiment: Antibacterial activity against Escherichia coli imp4213::Tn10 by broth microdilution method; assay type: functional
[4] = system: Escherichia coli; experiment: Antibacterial activity against wild type Escherichia coli ATCC 25922 assessed as inhibition of microbial growth at 50 uM by broth microdilution method; assay type: functional; conditions: read-out: GI
[5] = system: Pseudomonas aeruginosa; experiment: Antibacterial activity against Pseudomonas aeruginosa ATCC 27853 assessed as inhibition of microbial growth at 50 uM by broth microdilution method; assay type: functional; conditions: read-out: GI
[6] = system: Enterococcus faecalis; experiment: Antibacterial activity against Enterococcus faecalis ATCC 29212 assessed as inhibition of microbial growth at 50 uM by broth microdilution method; assay type: functional; conditions: read-out: GI
[7] = system: Enterococcus faecalis; experiment: Antibacterial activity against Enterococcus faecalis ATCC 29212 assessed as inhibition of microbial growth by broth microdilution method; assay type: functional
[8] = target: DNA gyrase (Escherichia coli, UniProt P0AES4+P0AES6); experiment: Inhibition of Escherichia coli DNA gyrase using relaxed pNO1 plasmid and biotinylated oligonucelotide incubated for 30 mins by fluorescence based DNA super-coiling assay; assay type: protein-complex assay
[9] = target: DNA gyrase (Staphylococcus aureus) (UniProt P0A0K8+P20831); experiment: Inhibition of Staphylococcus aureus DNA gyrase assessed as residual enzyme activity at 100 uM using relaxed pNO1 plasmid and biotinylated oligonucelotide incubated for 30 mins by fluorescence based DNA super-coiling assay; assay type: protein-complex assay
[10] = system: Staphylococcus aureus; experiment: Antibacterial activity against Staphylococcus aureus 25923 assessed as inhibition of microbial growth by broth microdilution method; assay type: functional
[11] = target: Topoisomerase IV (Staphylococcus aureus) (UniProt P0C1U9+P0C1S7); experiment: Inhibition of Staphylococcus aureus DNA topoisomerase 4 assessed as residual enzyme activity at 100 uM using relaxed pNO1 plasmid and biotinylated oligonucelotide incubated for 30 mins by fluorescence based DNA relaxation assay; assay type: protein-complex assay
[12] = system: Pseudomonas aeruginosa; experiment: Antibacterial activity against Pseudomonas aeruginosa ATCC 27853 assessed as inhibition of microbial growth by broth microdilution method; assay type: functional
[13] = system: Escherichia coli; experiment: Antibacterial activity against wild type Escherichia coli ATCC 25922 by broth microdilution method; assay type: functional
[14] = system: Escherichia coli; experiment: Antibacterial activity against efflux deficient Escherichia coli tolC::Tn10 lacking functional tolC gene by broth microdilution method
[15] = system: Escherichia coli; experiment: Antibacterial activity against wild type Escherichia coli ATCC 25922 assessed as inhibition of microbial growth by broth microdilution method; assay type: functional

Sequence of DNA gyrase (Staphylococcus aureus) (P0A0K8 2-644 limits assumed): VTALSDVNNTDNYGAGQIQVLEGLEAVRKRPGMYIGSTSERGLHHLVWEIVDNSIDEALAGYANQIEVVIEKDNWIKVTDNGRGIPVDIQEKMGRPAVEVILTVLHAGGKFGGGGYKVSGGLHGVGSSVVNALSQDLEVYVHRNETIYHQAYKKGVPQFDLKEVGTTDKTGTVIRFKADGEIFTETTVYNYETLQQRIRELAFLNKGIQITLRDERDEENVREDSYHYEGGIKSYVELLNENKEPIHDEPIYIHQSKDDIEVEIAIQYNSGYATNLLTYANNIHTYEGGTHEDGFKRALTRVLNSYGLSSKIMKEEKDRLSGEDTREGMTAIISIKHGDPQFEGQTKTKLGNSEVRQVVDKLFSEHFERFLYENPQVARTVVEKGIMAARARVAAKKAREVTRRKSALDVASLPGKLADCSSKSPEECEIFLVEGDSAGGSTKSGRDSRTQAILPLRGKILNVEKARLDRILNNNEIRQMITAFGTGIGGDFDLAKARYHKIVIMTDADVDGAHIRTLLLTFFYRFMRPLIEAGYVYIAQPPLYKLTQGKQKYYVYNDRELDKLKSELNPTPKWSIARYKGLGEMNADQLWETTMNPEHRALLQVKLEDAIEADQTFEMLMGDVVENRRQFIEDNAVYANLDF
Sequence of DNA gyrase (Staphylococcus aureus) (P20831 whole entry partner): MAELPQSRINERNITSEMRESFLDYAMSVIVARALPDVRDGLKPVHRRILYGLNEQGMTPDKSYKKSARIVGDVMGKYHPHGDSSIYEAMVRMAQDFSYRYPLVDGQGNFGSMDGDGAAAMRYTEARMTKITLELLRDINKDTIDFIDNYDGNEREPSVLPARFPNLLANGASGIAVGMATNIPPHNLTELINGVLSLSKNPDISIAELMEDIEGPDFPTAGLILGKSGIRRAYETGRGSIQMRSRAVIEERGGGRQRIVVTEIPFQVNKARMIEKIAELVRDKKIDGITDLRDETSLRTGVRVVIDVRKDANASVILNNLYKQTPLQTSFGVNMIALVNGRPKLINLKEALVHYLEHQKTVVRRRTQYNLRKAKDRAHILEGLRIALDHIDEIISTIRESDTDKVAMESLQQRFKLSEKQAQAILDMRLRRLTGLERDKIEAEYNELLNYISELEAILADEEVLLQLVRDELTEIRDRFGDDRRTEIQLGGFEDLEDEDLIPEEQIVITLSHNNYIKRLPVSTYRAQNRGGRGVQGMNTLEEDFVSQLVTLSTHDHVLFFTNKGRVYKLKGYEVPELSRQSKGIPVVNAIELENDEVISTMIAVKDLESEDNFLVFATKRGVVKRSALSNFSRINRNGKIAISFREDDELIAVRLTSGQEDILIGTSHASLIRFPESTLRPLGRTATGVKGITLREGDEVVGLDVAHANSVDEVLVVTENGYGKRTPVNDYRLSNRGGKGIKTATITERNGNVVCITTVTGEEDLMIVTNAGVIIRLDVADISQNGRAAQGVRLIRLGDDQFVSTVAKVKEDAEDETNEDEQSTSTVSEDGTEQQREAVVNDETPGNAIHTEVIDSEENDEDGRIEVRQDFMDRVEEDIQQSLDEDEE

Structure (SMILES)	Activity [1] [%]	inhibition of growth at 50 µM [2] [%]	MIC [3] [µg/mL]	inhibition of growth at 50 µM [4] [%]	inhibition of growth at 50 µM [5] [%]	inhibition of growth at 50 µM [6] [%]	MIC [7] [µM]	IC50 [8] [µM]	Activity [9] [%]	MIC [10] [µM]	Activity [11] [%]	MIC [12] [µM]	MIC [13] [µg/mL]	MIC [14] [µg/mL]	MIC [15] [µM]
O=C(O)CC(=O)Nc1nc2c(s1)C[C@H](NC(=O)c1cc(Br)c(Br)[nH]1)CC2	96	< 50	> 256	< 50	< 50	< 50	> 125	0.5	108	> 125	102	> 125	> 256	> 256	> 125
Nc1ncc2c(n1)CCC(NC(=O)c1cc(Br)c[nH]1)C2 (stereo not drawn)	97	< 50	–	< 50	< 50	< 50	> 125	35	100	> 125	105	> 125	–	–	> 125
Nc1ncc2c(n1)CCC(NC(=O)c1cc3ccccc3[nH]1)C2 (stereo not drawn)	97	< 50	–	< 50	< 50	< 50	> 125	29	119	> 125	103	> 125	–	–	> 125
COC(=O)CCC(=O)Nc1nc2c(s1)C[C@@H](NC(=O)c1cc(Cl)c(Cl)[nH]1)CC2	100	< 50	> 256	< 50	< 50	< 50	> 125	0.89	86	> 125	93	> 125	> 256	> 256	> 125
COC(=O)CC(=O)Nc1ncc2c(n1)CCC(NC(=O)c1cc(Br)c(Br)[nH]1)C2 (stereo not drawn)	97	< 50	256 (≈ 497 µM)	< 50	< 50	< 50	> 125	2.6	71	> 125	98	> 125	> 256	64 (≈ 124 µM)	> 125
Nc1ncc2c(n1)CCC(NC(=O)c1cc(Br)c(Br)[nH]1)C2 (stereo not drawn)	102	< 50	> 256	< 50	< 50	< 50	> 125	2.9	96	> 125	98	> 125	> 256	> 256	> 125
Nc1nc2c(s1)C[C@H](NC(=O)c1cc(Br)c(Br)[nH]1)CC2	96	< 50	64 (≈ 152 µM)	< 50	< 50	< 50	> 125	41	118	> 125	92	> 125	> 256	64 (≈ 152 µM)	> 125
COC(=O)CC(=O)Nc1nc2c(s1)C[C@H](NC(=O)c1cc(Br)c(Br)[nH]1)CC2	101	< 50	256 (≈ 492 µM)	< 50	< 50	< 50	> 125	9.1	64	> 125	85	> 125	> 256	64 (≈ 123 µM)	> 125
Nc1nc2c(s1)C[C@@H](NC(=O)c1cc(Cl)c(Cl)[nH]1)CC2	97	< 50	64 (≈ 193 µM)	< 50	< 50	< 50	> 125	12	85	> 125	98	> 125	> 256	64 (≈ 193 µM)	> 125
COC(=O)CC(=O)Nc1nc2c(s1)C[C@@H](NC(=O)c1cc(Br)c[nH]1)CC2	95	< 50	–	< 50	< 50	< 50	> 125	25	100	> 125	104	> 125	–	–	> 125
O=C(O)C(=O)Nc1nc2c(s1)C[C@@H](NC(=O)c1cc3ccccc3[nH]1)CC2	47	< 50	128 (≈ 333 µM)	< 50	< 50	< 50	> 125	7.7	79	> 125	99	> 125	> 256	> 256	> 125
O=C(O)CCC(=O)Nc1nc2c(s1)C[C@@H](NC(=O)c1cc3ccccc3[nH]1)CC2	99	< 50	> 256	< 50	< 50	< 50	> 125	8.1	95	> 125	79	> 125	> 256	> 256	> 125
CCOC(=O)C(=O)Nc1nc2c(s1)C[C@@H](NC(=O)c1cc3ccccc3[nH]1)CC2	101	< 50	–	< 50	< 50	< 50	> 125	10	76	> 125	99	> 125	–	–	> 125
